From ChEMBL document CHEMBL1201862, “PubChem BioAssay data set” (2004)
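In this assay, cells in 96-well plates receive the compound at five concentrations for 48 hours. Endpoints are linearly interpolated between the surrounding concentrations. At the GI50, growth is halved.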 The source made the active and inactive calls. Rule as the data show it: active = GI50 up to about 1.1 µM and inactive = higher.

Columns and labels:
Assay in all cases: growth of human tumour cells (NCI), 48 h
[1] = tested on: COLO 205
[2] = tested on: SF-295
[3] = tested on: RXF 393
[4] = tested on: Malme-3M
[5] = tested on: T47D
[6] = tested on: NCI/ADR-RES
[7] = tested on: HOP-62
[8] = tested on: HL-60
[9] = tested on: UO-31
[10] = tested on: SR
[11] = tested on: U-251
[12] = tested on: IGROV-1
[13] = tested on: NCI-H522
[14] = tested on: 786-0
[15] = tested on: MDA-MB-435
[16] = tested on: RPMI-8226
[17] = tested on: TK-10
[18] = tested on: OVCAR-4
[19] = tested on: HOP-92
[20] = tested on: SK-MEL-28

SMILES | GI50 [1] | GI50 [2] | GI50 [3] | GI50 [4] | GI50 [5] | GI50 [6] | GI50 [7] | GI50 [8] | GI50 [9] | GI50 [10] | GI50 [11] | GI50 [12] | GI50 [13] | GI50 [14] | GI50 [15] | GI50 [16] | GI50 [17] | GI50 [18] | GI50 [19] | GI50 [20]
N#Cc1c(C#N)c(-c2ccccc2)n(-c2ccccc2)c1N | > 100 µM (inactive) | 15.3 µM (inactive) | 41.6 µM (inactive) | > 100 µM (inactive) | 6.52 µM (inactive) | > 100 µM (inactive) | 84.9 µM (inactive) | > 100 µM (inactive) | 12.8 µM (inactive) | 73.8 µM (inactive) | 33.4 µM (inactive) | 88.5 µM (inactive) | 41.9 µM (inactive) | 82.6 µM (inactive) | > 100 µM (inactive) | 5.87 µM (inactive) | > 100 µM (inactive) | 56.2 µM (inactive) | – | –
O=C1C2CCCCC2C(=O)N1n1c(Cc2ccc(Cl)cc2)n[nH]c1=O (configuration not stated) | > 100 µM (inactive) | > 100 µM (inactive) | > 100 µM (inactive) | > 100 µM (inactive) | > 100 µM (inactive) | > 100 µM (inactive) | > 100 µM (inactive) | – | > 100 µM (inactive) | > 100 µM (inactive) | > 100 µM (inactive) | > 100 µM (inactive) | > 100 µM (inactive) | > 100 µM (inactive) | > 100 µM (inactive) | > 100 µM (inactive) | > 100 µM (inactive) | > 100 µM (inactive) | > 100 µM (inactive) | –
CNC(=O)Oc1ccc(C(=S)Nc2ccc(Br)cc2)cc1 | 18.2 µM (inactive) | – | – | 31.3 µM (inactive) | 18.5 µM (inactive) | 17.6 µM (inactive) | 20.6 µM (inactive) | 2.1 µM (inactive) | 17 µM (inactive) | 13.6 µM (inactive) | 23.2 µM (inactive) | 0.783 µM (active) | 11.4 µM (inactive) | 21.8 µM (inactive) | 21.8 µM (inactive) | 23 µM (inactive) | – | 18.5 µM (inactive) | – | 22 µM (inactive)
COC(=O)c1ccccc1C1=C([N+](=O)[O-])C(c2cccc(Br)c2)C(C#N)=C(N)O1 (configuration not stated) | 33 µM (inactive) | > 100 µM (inactive) | 18.3 µM (inactive) | – | 28.3 µM (inactive) | 23.3 µM (inactive) | 33 µM (inactive) | 29 µM (inactive) | – | 18.2 µM (inactive) | > 100 µM (inactive) | 27.8 µM (inactive) | 13.6 µM (inactive) | 25.6 µM (inactive) | 22.7 µM (inactive) | 23.7 µM (inactive) | 46.5 µM (inactive) | – | 21.5 µM (inactive) | 52.6 µM (inactive)
Cc1c(O)c(=O)ccn1CCc1c[nH]c2ccccc12 | 12.6 µM (inactive) | 3.93 µM (inactive) | – | 18.2 µM (inactive) | 22.3 µM (inactive) | 3.1 µM (inactive) | 8.75 µM (inactive) | 19.4 µM (inactive) | – | 5.73 µM (inactive) | 6.55 µM (inactive) | – | – | 2.55 µM (inactive) | 17.2 µM (inactive) | 3.69 µM (inactive) | 4.81 µM (inactive) | – | 0.483 µM (active) | –
Cc1nnc2n1-c1ccccc1C(=S)N1CSCC21 (configuration not stated) | > 100 µM (inactive) | > 100 µM (inactive) | > 100 µM (inactive) | > 100 µM (inactive) | > 100 µM (inactive) | > 100 µM (inactive) | > 100 µM (inactive) | – | > 100 µM (inactive) | > 100 µM (inactive) | > 100 µM (inactive) | > 100 µM (inactive) | > 100 µM (inactive) | > 100 µM (inactive) | > 100 µM (inactive) | > 100 µM (inactive) | > 100 µM (inactive) | > 100 µM (inactive) | – | > 100 µM (inactive)
O=c1c2nc[nH]c2n(-c2ccccc2)c(=S)n1-c1ccccc1 | > 100 µM (inactive) | > 100 µM (inactive) | > 100 µM (inactive) | – | > 100 µM (inactive) | > 100 µM (inactive) | > 100 µM (inactive) | > 100 µM (inactive) | > 100 µM (inactive) | > 100 µM (inactive) | > 100 µM (inactive) | > 100 µM (inactive) | > 100 µM (inactive) | > 100 µM (inactive) | > 100 µM (inactive) | > 100 µM (inactive) | > 100 µM (inactive) | > 100 µM (inactive) | – | > 100 µM (inactive)
CCOC(=O)C(NC(=O)Nc1ccc(Cl)c(Cl)c1)C(F)(F)F (configuration not stated) | > 100 µM (inactive) | – | > 100 µM (inactive) | – | > 100 µM (inactive) | > 100 µM (inactive) | – | > 100 µM (inactive) | 49.8 µM (inactive) | > 100 µM (inactive) | > 100 µM (inactive) | > 100 µM (inactive) | – | > 100 µM (inactive) | 87.1 µM (inactive) | > 100 µM (inactive) | > 100 µM (inactive) | – | – | > 100 µM (inactive)
O=C1C=CC2(C=C1)O[C@H](COCc1ccccc1)[C@@H](COCc1ccccc1)O2 | 1.72 µM (inactive) | 16 µM (inactive) | 0.2 µM (active) | 2.54 µM (inactive) | 2.04 µM (inactive) | 1.83 µM (inactive) | 2.23 µM (inactive) | 2.59 µM (inactive) | 1.57 µM (inactive) | 0.251 µM (active) | 1.92 µM (inactive) | 1.61 µM (inactive) | – | 0.627 µM (active) | 2.27 µM (inactive) | 0.42 µM (active) | 1.6 µM (inactive) | 2.23 µM (inactive) | 1.01 µM (active) | 1.8 µM (inactive)
O=C(O)C/N=C(\C(=N\CC(=O)O)c1ccccc1)c1ccccc1 | > 100 µM (inactive) | > 100 µM (inactive) | > 100 µM (inactive) | > 100 µM (inactive) | 68.5 µM (inactive) | > 100 µM (inactive) | > 100 µM (inactive) | – | 90.2 µM (inactive) | > 100 µM (inactive) | > 100 µM (inactive) | – | > 100 µM (inactive) | > 100 µM (inactive) | > 100 µM (inactive) | 85.7 µM (inactive) | > 100 µM (inactive) | > 100 µM (inactive) | – | > 100 µM (inactive)
COc1ccc2nc3c([N+](=O)[O-])ccc4c3c(c2c1)N=CN4CCN(C)C | 2.34 µM (inactive) | 5.57 µM (inactive) | – | 3.92 µM (inactive) | 5.14 µM (inactive) | 3.18 µM (inactive) | 3.17 µM (inactive) | 0.266 µM (active) | 2.46 µM (inactive) | 0.168 µM (active) | 5.07 µM (inactive) | 2.47 µM (inactive) | 2.03 µM (inactive) | 3.61 µM (inactive) | 6.67 µM (inactive) | 2.24 µM (inactive) | 6.34 µM (inactive) | 9.02 µM (inactive) | 5.06 µM (inactive) | 7.01 µM (inactive)
COc1cc2c(cc1OCCCCCN1C(=O)c3cccc4cccc(c34)C1=O)N=C[C@@H]1CCCN1C2=O | 0.28 µM (active) | 0.386 µM (active) | 0.0647 µM (active) | 0.163 µM (active) | 0.13 µM (active) | 0.421 µM (active) | 0.262 µM (active) | – | 0.153 µM (active) | < 0.01 µM (active) | 0.249 µM (active) | 0.0552 µM (active) | 0.0336 µM (active) | 0.249 µM (active) | 0.167 µM (active) | 0.119 µM (active) | 0.129 µM (active) | 0.248 µM (active) | 0.142 µM (active) | 0.301 µM (active)
